Source: article PMC7497412 (RSC Advances, 2020)
Values after ≈ are worked out from the molar mass of the structure shown. Like-named read-outs stand apart in the source and are kept apart here.

Key:
[1] = system: M. avium; experiment: MIC against M. avium; format: cell-based; details: Mycobacterium avium, read-out: M. avium MIC
[2] = system: Vero cells; experiment: Cytotoxicity on Vero cells; format: cell-based; details: for SI (selectivity index): SI = IC50(Vero)/MIC
[3] = system: M. abs; experiment: MIC against M. abs; format: cell-based, Mycobacterium abscessus; details: Mycobacteroides abscessus, read-out: M. abs MIC
[4] = system: M. tb V4207/DS; experiment: microbe, parasite or virus in culture; format: cell-based; details: Mycobacterium tuberculosis, read-out: M. tb MIC V4207/DS
[5] = Chlorocebus sabaeus, Vero, read-out: IC50 Vero cells, cytotoxicity, Vero cells
[6] = read-out: IC50 Vero cells, cytotoxicity, Vero cells

Row | Compound | MIC [1] | IC50 [2, 5] | SI (selectivity index) [2] | IC50 [2, 6] | MIC [3] | MIC [4]
1 | O=C(NC12CC3CC(CC(C3)C1)C2)c1ccc2ccccc2c1 [13d, N-(1-Adamantanyl)-2-naphthamide] | > 209 µM | ≥ 227 µM | ≥64 | ≥ 419 µM | > 209 µM | 6.55 to 13.1 µM (≈ 2 to 4 µg/mL)
2 | O=C(NC1CCCCCCC1)c1ccc2ccccc2c1 [13c, N-Cyclooctyl-2-naphthamide] | > 227 µM | ≥ 227 µM | ≥32 | – | > 227 µM | 7.11 µM (≈ 2 µg/mL)
3 | O=C(Nc1nc(-c2ccc(Cl)cc2Cl)cs1)C12CC3CC(CC(C3)C1)C2 [18b, N-(4-(2,4-Dichlorophenyl)thiazol-2-yl)adamantane-1-carboxamide] | > 157 µM | 9.82 to 39.9 µM | 1 | 9.82 µM | > 157 µM | 9.82 µM (≈ 4 µg/mL)
4 | O=C(NC12CC3CC(CC(C3)C1)C2)c1cc(=O)c2c(Br)cccc2[nH]1 [8i, N-(1-Adamantanyl)-5-bromo-4-oxo-1,4-dihydroquinoline-2-carboxamide] | > 159 µM | – | 4 | – | > 159 µM | 9.97 µM (≈ 4 µg/mL)
